Experiments:
[1] = system: TAC-induced heart hypertrophy; experiment: Reversal of heart hypertrophy, TAC model (Experimental Example 2); format: in vivo, C57BL/6J male mice; conditions: 150 mg/kg for 4 weeks, starting 2 weeks after TAC
Experimental: (§1) 8-week-old C57BL/6J male mice (n=40, 20-23 g, SLC, Japan) were purchased and subjected to transverse aortic constriction (TAC).
(§2) The thorax was incised and the thymus was removed.
(§3) 5 weeks after the operation of TAC for the heart failure model, a difference of a fractional shortening (F.S) value (%) with the control group was confirmed using echocardiogram, and the degree of heart failure induction and therapeutic effects were then determined.
(§4) Further, left ventricular end-diastolic and systolic diameters were measured according to the standard method of the American Society for Echocardiography. Fractional shortening (%) which is an indicator of the ventricular contractility is calculated according to the following equation.
(§5) F.S=(left ventricular end-diastolic diameter)−(left ventricular end-systolic diameter)/left ventricular end-diastolic diameter
(§6) In order to measure effects of MB660 on the reversal of heart hypertrophy and heart failure, the experiment was carried out as follows.
(§7) After induction of heart hypertrophy (2 weeks after TAC treatment) and heart failure (5 weeks after TAC treatment), animals were given test samples for 4 weeks.

[2] = system: TAC-induced heart hypertrophy; experiment: Changes of heart size in heart hypertrophy model (Experimental Example 4); format: in vivo, C57BL/6J male mice; conditions: 150 mg/kg orally for two weeks from one week after TAC, heart excised three weeks after TAC, FIG. 15
Description: as §2
In order to examine changes of heart size in response to the administration of MB660, experimental animals were divided into four groups as given in Table 4 below:
One week after TAC treatment, animals were orally given MB660 for two weeks. Three weeks after TAC treatment, animals were sacrificed and the heart was excised, followed by size examination.

[3] = system: cardiomyocytic mitochondria, TAC-induced heart hypertrophy; experiment: Mitochondrial changes of cardiomyocytes in heart hypertrophy model (Experimental Example 5); format: in vivo, C57BL/6J mice; conditions: orally for 4 weeks after induction of heart hypertrophy (2 weeks after TAC), transmission electron microscope, FIG. 16
Description: (§8) Animals were orally given test samples for 4 weeks after induction of heart hypertrophy (2 weeks after TAC treatment) and heart failure (5 weeks after TAC treatment). The left ventricular myocardial tissues of animals were fixed in 2.5% glutaraldehyde to prepare tissue sections, and mitochondrial morphological changes were examined under a transmission electron microscope.
(§9) In C57BL/6J mice with TAC-induced heart hypertrophy and heart failure, alterations in cardiomyocytic mitochondria in response to the administration of MB660 were observed.

[4] = system: TAC-induced heart failure; experiment: Reversal of heart failure, TAC model (Experimental Example 2); format: in vivo, C57BL/6J male mice; conditions: 150 mg/kg for 4 weeks, starting 5 weeks after TAC
Experimental: as §1, §2, §3, §4, §5, §6, §7

[5] = system: TAC-induced heart hypertrophy; conditions: FIG. 14
Description: For the operation of TAC, C57BL/6 male mice were anesthetized with an intraperitoneal injection of a liquid anesthetic (ketamine:xylazine=20:1, kg/ml), and a 22-gauge IV catheter needle was placed into the trachea, followed by connection with a ventilator (Harvard Apparatus) for artificial forcible respiration. The thorax was incised and the thymus was removed. Following the removal of the thymus, the transverse aorta between the right subclavian artery and the left subclavian artery was banded (7-0, silk) with an overlaying blunted 27-gauge needle, and then the needle was quickly removed to create a defined constriction. The thorax was sutured with (5-0) silk to complete the surgery, and respiration of animals was then confirmed.
A ratio of heart weight (HW) to body weight (BW) (HW/BW ratio) and a ratio of heart weight (HW) to tibia length (HW/TL ratio) were respectively estimated using echocardiogram.
2 days after the operation of TAC, animals were orally given test samples for 2 weeks.

[6] = system: cardiomyocytic mitochondria, TAC-induced heart failure; experiment: Mitochondrial changes of cardiomyocytes in heart failure model (Experimental Example 5); format: in vivo, C57BL/6J mice; conditions: orally for 4 weeks after induction of heart failure (5 weeks after TAC), transmission electron microscope, FIG. 17
Description: as §8, §9

[7] = system: TAC-induced heart hypertrophy; experiment: Inhibitory effect on heart hypertrophy, TAC model (Experimental Example 1); format: in vivo, C57BL/6J male mice
Experimental: as §1, §2, §3, §4, §5
(§10) Among compounds of Formula 1, inhibitory effects of 7,8-dihydro-2,2-dimethyl-2H-naphtho(2,3-b)dihydropyran-7,8-dione (hereinafter, referred to as “MB660”) on heart hypertrophy and heart failure were examined.
(§11) 2 days after TAC treatment, animals were given test samples. Induction of heart hypertrophy was carried out over 2 weeks after TAC treatment. Induction of heart failure was carried out over 5 weeks after TAC treatment.

[8] = system: TAC-induced heart failure; experiment: Inhibitory effect on heart failure, TAC model (Experimental Example 1); format: in vivo, C57BL/6J male mice
Experimental: as §1, §2, §3, §4, §5, §10, §11

## CC1(C)CCc2cc3c(cc2O1)=CC(=O)C(=O)C=3 [MB660, 7,8-dihydro-2,2-dimethyl-2H-naphtho(2,3-b)dihydropyran-7,8-dione]
[1]; FIG. 7
  HW/BW lower than the non-MB660 treated group: ≥ 30%
  HW/BW value: 6.23
[1]; FIG. 8
  HW/TL lower than the non-MB660 treated group: about 25%
  HW/TL value: 7.68
[1]; FIG. 9
  fractional shortening vs non-MB660 treated group: significant increase
[2]
  heart size, TAC group vs non-administered TAC control: significant decrease of the heart size
[3]
  mitochondrial function/morphology of cardiomyocytes: returned to the original condition
[4]; FIG. 10
  HW/BW ratio vs control group: low values
[4]; FIG. 11
  HW/TL ratio vs control group: low values
[4]; FIG. 12
  fractional shortening vs control group: significant increase
[5]; 30, 60, 100, 150 mg/kg orally for 2 weeks from 2 days after TAC
  HW/BW ratio vs control group (TAC): significant decrease
[5]; 30 to 150 mg/kg orally for 2 weeks
  HW/BW ratio, dependence on dose: generally decreased with an increasing dose
[5]; orally for 2 weeks
  HW/BW ratio at 60 mg compared to the group with 30 mg: increased
[6]
  mitochondrial function/morphology of cardiomyocytes: returned to the original condition
[7]; TAC MB(+), 150 mg/kg, given from 2 days after TAC, hypertrophy induced over 2 weeks, FIG. 1
  HW/BW ratio vs non-MB660 treated TAC group: significantly low value of heart hypertrophy
[7]; TAC MB(+), 150 mg/kg, given from 2 days after TAC, hypertrophy induced over 2 weeks, FIG. 2
  HW/TL ratio vs non-MB660 treated TAC group: significantly low value of heart hypertrophy
[7]; echocardiogram, heart hypertrophy-induced model, FIG. 3
  fractional shortening vs non-MB660 treated group: significant increase
[8]; TAC MB(+), 150 mg/kg, given from 2 days after TAC, heart failure induced over 5 weeks, FIG. 4
  HW/BW ratio vs non-MB660 treated group: significantly low values
[8]; TAC MB(+), 150 mg/kg, given from 2 days after TAC, heart failure induced over 5 weeks, FIG. 5
  HW/TL ratio vs non-MB660 treated group: significantly low values
[8]; echocardiogram, heart failure-induced model
  fractional shortening vs non-MB660 treated group: significantly increased

— patent publication US20110002995A1, “PHARMACEUTICAL COMPOSITION FOR THE TREATMENT AND PREVENTION OF CARDIAC DISEASE” (MAZENCE INC., priority 2007, published 2011)
